Reference: patent US9650339B2, “Inhibitors of histone demethylases” (Gilead Sciences, Inc., priority 2013, dated 2017)

How the values were obtained:
Type in all cases: cell-based
KDM2A = molecular target: T1, KDM2A (Homo sapiens, UniProt Q9Y2K7); experiment: Histone lysine demethylase immunofluorescence assay, U2OS cells transfected with KDM2A; settings: U2OS cells transfected with pCMVHA KDM2A; mark detected H3K36me2; 20 hours
T1 construct: Full length; host or cells: U2OS
T1 sequence (Q9Y2K7 1-1162): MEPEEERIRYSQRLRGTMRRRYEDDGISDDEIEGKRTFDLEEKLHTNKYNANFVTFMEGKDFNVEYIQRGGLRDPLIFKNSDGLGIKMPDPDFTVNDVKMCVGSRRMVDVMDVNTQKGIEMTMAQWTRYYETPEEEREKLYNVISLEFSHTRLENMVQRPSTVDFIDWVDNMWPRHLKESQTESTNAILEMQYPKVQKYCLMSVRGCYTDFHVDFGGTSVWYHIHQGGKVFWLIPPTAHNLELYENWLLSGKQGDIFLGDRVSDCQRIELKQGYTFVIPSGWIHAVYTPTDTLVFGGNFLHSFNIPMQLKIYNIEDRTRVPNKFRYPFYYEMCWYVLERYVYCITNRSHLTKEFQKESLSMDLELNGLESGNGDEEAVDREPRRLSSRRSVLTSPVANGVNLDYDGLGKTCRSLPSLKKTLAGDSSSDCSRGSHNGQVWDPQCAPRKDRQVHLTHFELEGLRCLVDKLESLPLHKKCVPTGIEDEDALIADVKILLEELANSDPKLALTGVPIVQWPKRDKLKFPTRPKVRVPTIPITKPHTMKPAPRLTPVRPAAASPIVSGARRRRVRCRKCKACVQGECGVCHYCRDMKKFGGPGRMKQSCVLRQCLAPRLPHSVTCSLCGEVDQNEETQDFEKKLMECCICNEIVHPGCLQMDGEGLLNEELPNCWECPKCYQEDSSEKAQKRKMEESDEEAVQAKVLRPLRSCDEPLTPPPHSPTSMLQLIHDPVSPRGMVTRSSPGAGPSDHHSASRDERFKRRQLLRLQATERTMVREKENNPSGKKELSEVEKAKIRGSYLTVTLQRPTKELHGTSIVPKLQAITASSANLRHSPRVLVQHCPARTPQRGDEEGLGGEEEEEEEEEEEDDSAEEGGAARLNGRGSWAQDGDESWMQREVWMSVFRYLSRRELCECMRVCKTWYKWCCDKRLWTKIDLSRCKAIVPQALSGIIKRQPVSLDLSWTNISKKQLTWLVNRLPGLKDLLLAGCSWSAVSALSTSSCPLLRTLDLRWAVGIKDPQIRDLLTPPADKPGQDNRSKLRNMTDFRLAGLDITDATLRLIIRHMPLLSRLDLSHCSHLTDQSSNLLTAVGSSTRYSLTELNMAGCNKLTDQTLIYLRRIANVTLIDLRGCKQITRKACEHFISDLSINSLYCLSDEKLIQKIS
Experimental: U2OS cells were seeded 24 hours before transfection. Transfection was performed with Fugene HD transfection reagent as recommended by the manufacturer. 6 hours after transfection, the cells were harvested and seeded into multi well plates into media containing compound. The media used was DMEM containing 10% FBS and pen/strep. 20 hours after incubation of cells with compounds, the cells were washed in PBS, harvested by fixation with formaldehyde 4% aqueous solution, and washed in PBS. Subsequently, the cells were permeabilized in PBS with 0.2% Triton X-100 for. Blocking was performed in PBS with 0.2% Triton X-100 and 5% FBS. The cells were incubated with primary antibodies in blocking solution over night at 4° C. The primary antibodies used in the assays were HA.11 (Covance, MMS-101P) and the antibody detecting the mark specified in the table below. After incubation with primary antibodies, the cells were washed with PBS, incubated with secondary antibodies (Alexa fluor 594 goat anti rabbit IgG, Invitrogen, A11012; Alexa flour 488 donkey anti mouse IgG, Invitrogen, A21202) and Hoechst, (Sigma, 33342) in blocking solution, and washed again with PBS. Finally, PBS was added and high throughput imaging and analysis were performed by an IN Cell Analyzer 1000 (GE Healthcare). The robot software analyzed individual cells and divided these into HA+ (transfected cells) and HA− (non-transfected cells). The IC50 values were based on an average measure of the staining of the mark specified in the table below in the transfected cells.

ARPE19 = experiment: Cell proliferation assay ARPE19; settings: Homo sapiens, ARPE-19; ARPE19, Retinal pigmented epithelium; method of Example 5
Experimental: (§1) MCF7 cells were seeded in multi well plates at a density optimized to give approximately 90% confluent cells at the time of harvest. Cells were incubated for 24 hours before addition of compound. Compounds were diluted in complete medium and added to the plates in duplicates. The final concentration of DMSO was maximum 0.5%. Complete medium used was DMEM with GlutaMAX containing 10% FBS and pen/strep.
(§2) 120 hours after addition of compounds, the plates were harvested and analyzed by ATPlite 1 Step (Perkin Elmer, cat no 6016739) according to the manufactures recommendation.
(§3) The assays were performed by the method of Example 5 by seeding the relevant cell line at a density optimized to give approximately 90% confluent cells at the time of harvest.

HEPG2 = experiment: Cell proliferation assay HEPG2; settings: Homo sapiens; HEPG2, Hepatocellular carcinoma; method of Example 5
Experimental: as §1, §2, §3

MDA MB 231 = experiment: Cell proliferation assay MDA MB 231; settings: Homo sapiens; MDA MB 231, Breast carcinoma; method of Example 5
Experimental: as §1, §2, §3

MOLP2 = experiment: Cell proliferation assay MOLP2; settings: Homo sapiens, MOLP-2; MOLP2, Myeloma; method of Example 5
Experimental: as §1, §2, §3

NCIH929 = experiment: Cell proliferation assay NCIH929; settings: Homo sapiens, NCI-H929; NCIH929, Myeloma; method of Example 5
Experimental: as §1, §2, §3

OPM2 = experiment: Cell proliferation assay OPM2; settings: Homo sapiens, OPM-2; OPM2, Myeloma; method of Example 5
Experimental: as §1, §2, §3

RAJI = experiment: Cell proliferation assay RAJI; settings: Homo sapiens, Burkitt's lymphoma, method of Example 5
Experimental: as §1, §2, §3

BT474 = experiment: Cell proliferation assay BT474; settings: Homo sapiens, BT-474; BT474, Mammary ductal carcinoma; method of Example 5
Experimental: as §1, §2, §3

KARPAS620 = experiment: Cell proliferation assay KARPAS620; settings: Homo sapiens, Karpas-620; KARPAS620, Plasma cell leukemia; method of Example 5
Experimental: as §1, §2, §3

MIA PACA2 = experiment: Cell proliferation assay MIA PACA2; settings: Homo sapiens, MIA PaCa-2; MIA PACA2, Pancreas epithelial carcinoma; method of Example 5
Experimental: as §1, §2, §3

NALM6 = experiment: Cell proliferation assay NALM6; settings: Homo sapiens, NALM-6; NALM6, Lymphoblastic leukemia; method of Example 5
Experimental: as §1, §2, §3

RPMI8226 = experiment: Cell proliferation assay RPMI8226; settings: Homo sapiens, RPMI-8226; RPMI8226, Myeloma; method of Example 5
Experimental: as §1, §2, §3

Row | IC50 (KDM2A) | EC50 (HEPG2) | EC50 (RAJI) | EC50 (RPMI8226) | Structure (SMILES) | EC50 (ARPE19) | also measured
1 | > 2500 nM | > 2500 nM | > 2500 nM | – | CCN(CCN(C)C)C(=O)CNCc1cc(CNC(=O)C(F)(F)F)ccn1 [Compound 25, N-[(2-{[({[2-(dimethylamino)ethyl]-(ethyl)carbamoyl}-methyl)amino]methyl}-pyrtdin-4-yl)methyl]-2,2,2-trifluoroacetamide] | > 2500 nM | EC50 (MDA MB 231): > 2500 nM; EC50 (MOLP2): 250 to 2500 nM; EC50 (NCIH929): 250 to 2500 nM; EC50 (OPM2): 250 to 2500 nM
2 | – | > 2500 nM | > 2500 nM | > 2500 nM | C(=N/C1CC1)/c1ccnc(CNCCCN2CCCC2)c1 [Compound 42, N-{[2-({[3-(pyrrolidin-1-yl)propyl]amino}-methyl)pyridin-4-yl]methylidene}-cyclopropanamine] | > 2500 nM | EC50 (BT474): 250 to 2500 nM; EC50 (KARPAS620): > 2500 nM; EC50 (MDA MB 231): > 2500 nM; EC50 (MIA PACA2): > 2500 nM; EC50 (NALM6): < 250 nM; EC50 (OPM2): > 2500 nM
3 | – | > 2500 nM | > 2500 nM | > 2500 nM | CCN(CC)CCCCNCc1cc(/C=N/CCO)ccn1 [Compound 61, 2-[{[2-({[4-(diethylamino)-butyl]amino}-methyl)pyridin-4-yl]methylidene}-amino]ethan-1-ol] | > 2500 nM | EC50 (BT474): < 250 nM; EC50 (KARPAS620): < 250 nM; EC50 (MIA PACA2): > 2500 nM; EC50 (NCIH929): > 2500 nM
4 | – | > 2500 nM | > 2500 nM | 250 to 2500 nM | CCN(CCN(C)C)C(=O)CNCc1cc(C2OCC(Cc3ccccc3)CN2C(=O)C(F)(F)F)ccn1 (centres unmarked) [Compound 90, 2-[({4-[5-benzyl-3-(trifluoroacetyl)-1,3-oxazinan-2-yl]pyridin-2-yl}methyl)amino]-N-[2-(dimethylamino)-ethyl]-N-ethylacetamide] | – | EC50 (KARPAS620): < 250 nM
5 | > 2500 nM | – | – | – | CCN(CCN(C)C)C(=O)CNCc1cc(C2OCC3(CC3)CN2C(=O)C(F)(F)F)ccn1 (centres unmarked) [Compound 91, N-[2--(dimethylamino)-ethyl]-N-ethyl-2-[({4-[7-(trifluoroacetyl)-5-oxa-7-azaspiro[2.5]-octan-6-yl]pyridin-2-yl}methyl)amino]-acetamide] | – | –
6 | > 2500 nM | – | – | – | CN(Cc1ccccc1F)C(=O)CNCc1cc(/C=N/CCO)ccn1 [Compound 92, N-[(2-fluorophenyl)methyl]-2-[({4-[[(2-hydroxyethyl)imino]-methyl]pyridin-2-yl}methyl)amino]-N-methylacetamide] | – | –
7 | > 2500 nM | – | – | – | OCC/N=C/c1ccnc(CNCCc2ccccc2OCc2ccccc2)c1 [Compound 93, 2-[({2-[({2-[2-(benzyloxy)phenyl]-ethyl}amino)methyl]-pyridin-4-yl}methylidene)-amino]ethan-1-ol] | – | –
8 | > 2500 nM | – | – | – | CCN(CCC#N)C(=O)CNCc1cc(/C=N/CCO)ccn1 [Compound 94, N-(2-cyanoethyl)-N-ethyl-2-[({4-[[(2-hydroxyethyl)imino]-methyl]pyridin-2-yl}methyl)amino]-acetamide] | – | –
9 | > 2500 nM | – | – | – | CC(C)C[C@H](NCc1cc(/C=N/CCO)ccn1)C(=O)N1CCCCC1 [Compound 95, (2S)-2-[({4-[[(2-hydroxyethyl)imino]-methyl]pyridin-2-yl}methyl)amino]-4-methyl-1-(piperidin-1-yl)pentan-1-one] | – | –
10 | – | – | – | > 2500 nM | CCN(CC)CCCCNCc1cc(C=O)ccn1 [Compound 107, 2-({[4-(diethylamino)-butyl]amino}-methyl)pyridine-4-carbaldehyde] | > 2500 nM | EC50 (BT474): < 250 nM; EC50 (MDA MB 231): > 2500 nM; EC50 (MIA PACA2): > 2500 nM; EC50 (MOLP2): > 2500 nM; EC50 (NALM6): < 250 nM; EC50 (OPM2): 250 to 2500 nM
11 | > 2500 nM | – | – | – | CN(CC(=O)N1CCCCC1)Cc1cc(C=O)ccn1 [Compound 120, 2-({methyl[2-oxo-2-(piperidin-1-yl)ethyl]amino}-methyl)pyridine-4-carbaldehyde] | – | –
